Data set [1] in a line: Extraction of diluted HCl hydrolyzate at 70° C. (Table VIII). The class given is physicochemical. To be noted: HMBA extract/raffinate, HCl hydrolyzate diluted 100:40 with water. From the text: The phases were separated and analyzed for HMBA.
This work up and extraction was repeated for 1-butanol.

A short description of data set [2]: Gardner color of HMBA product. The class given is physicochemical.
Excerpt: This product has a total HMBA content, including monomer, dimers, and oligomers, of between about 80% and about 95% by weight, preferably 85% to 90% by weight, and a water content of between about 5% and about 20%, preferably between 10% and about 15% by weight. […] The ratio of the weight proportion of HMBA monomer to the weight proportion of the sum of dimers and other oligomers thereof is at least about 2.8, preferably at least about 5.7.

In the case of `CC(=O)CC(C)C` [Methyl isobutyl ketone], the “Distribution Coefficient” value in data set [1] was 2.4.

`CSCCC(O)C(=O)O` (racemic) [HMBA, 2-hydroxy-4-methylthiobutyric acid]: the Gardner color in data set [2] (88% by weight solution in water, Example 1, first method (methyl propyl ketone and water extraction)) is 5; in data set [2] (Example 13, bottom product, 88.9% HMBA), 4. Moreover, the “Color (Gardner)” value in data set [2] (Example 6, Product) is reported as 3.

(Values after patent US4524077A, “Liquid 2-hydroxy-4-methylthiobutyric acid and process for the preparation thereof” (priority 1983, dated 1985).)
